We go through two compounds from article PMC9312238, “Novel Organoselenium Redox Modulators with Potential Anticancer, Antimicrobial, and Antioxidant Activities” (Antioxidants, 2022).

Broadly, the MIC is the smallest concentration in the dilution series that meets the test's criterion for growth inhibition.

Values after ≈ are worked out from the molar mass of the structure shown. Read-outs that look alike come from different tables or passages of the source.

Type in all cases: cell-based
The subject of experiment [1] is Escherichia coli. Nature of the experiment: MIC by microdilution, E. coli. On the procedure:
The antimicrobial activities of the OSe compounds were evaluated against C. albicans yeast, as well as E. coli and S. bacteria, employing the agar well diffusion assay. Furthermore, the MICs (in µM) were determined by the microdilution method according to the reported protocol. More details are in the Supporting Information.
1.1. The biological assays
1.1.1. The anticancer activity
The breast adenocarcinoma (MCF-7), Hepatocellular carcinoma (HEPG-2), and nor-mal fibroblast (WI-38) cells were obtained from ATCC via Holding company for biological products and vaccines (VACSERA), Cairo, Egypt. The reagents RPMI-1640 medium, MTT, DMSO, and fetal bovine serum was obtained from Sigma Aldrich. Dulbecco’s modified Eagle’s medium was used as the culture medium for the cells, and the cytotoxicity was evaluated using the reported MTT assay. […]
Cell lines were cultured in RPMI-1640 medium with 10% fetal bovine serum. […] The colorimetric assay is measured and recorded at an absorbance of 570 nm using a plate reader (EXL 800, USA). The percentage of the relative cell viability was calculated as (A570 of treated samples/A570 of the untreated sample) X 100. […]
The antimicrobial activities of the OSe compounds were evaluated against C. albicans yeast as well as E. coli gram-negative and S. aureus gram-positive bacteria employing the agar well diffusion assay. […]
On the technique in general: In broth dilution the organism is exposed to a series of concentrations in liquid medium.

In experiment [2] the test system is Staphylococcus aureus. Put plainly: MIC by microdilution, S. aureus. How it is done:
(§1) The antimicrobial activities of the OSe compounds were evaluated against C. albicans yeast, as well as E. coli and S. bacteria, employing the agar well diffusion assay. Furthermore, the MICs (in µM) were determined by the microdilution method according to the reported protocol. More details are in the Supporting Information. […]
(§2) 1.1.1. The antimicrobial activity
(§3) The antimicrobial activities of the OSe compounds were evaluated against C. albicans yeast as well as E. coli gram-negative and S. aureus gram-positive bacteria employing the agar well diffusion assay. Briefly, a concentration of 1 mM was prepared for each compound by dissolving in DMSO. Paper discs of standard size […] were steri-lized in an autoclave and soaked in 20 µL of the test compounds, and placed in the Petri dishes, which in turn contain a nutrient media (agar 20 g, peptone 5 g, and beef extract 3 g) seeded with the dedicated strain. Incubation lasted for 24 h at 36
(§4) Furthermore, the MICs (in µM) were determined by the microdilution method according to the reported protocol. […]
(§5) Inhibition%= (Ablank-Asample)/(Ablank)*100. (1)

For experiment [3], the system named is Candida albicans. Nature of the experiment: MIC by microdilution, C. albicans. The note with it: read-out: MIC (μM) C. albicans. On the procedure: as §1, §2, §3, §4, §5

With “2-((4-(2-(3-hydroxynaphthalen-1(4H)-ylidene)hydrazinyl)phenyl)selanyl)-N-phenylacetamide [Compound 9]”, the “MIC (μM) E. coli” value in experiment [1] (microdilution) was 0.5 µM. In addition, the “MIC (μM) S. aureus” value in experiment [2] (microdilution) stood at 1 µM. In experiment [3] (microdilution), the MIC was 2 µM.

Consider `Nc1ccc([Se]CC(=O)N[C@@H](Cc2c[nH]c3ccccc23)C(=O)O)cc1` [Compound 6, (2-((4-aminophenyl)selanyl)acetyl)tryptophan], for which the MIC stood at 1 µM (≈ 0.416 µg/mL) in experiment [1] (Escherichia coli, read-out: MIC (μM) E. coli); 2 µM (≈ 0.833 µg/mL) in experiment [2] (Staphylococcus aureus, read-out: MIC (μM) S. aureus); 8 µM (≈ 3.33 µg/mL) in experiment [3] (Candida albicans).
